Experimental data published in patent publication US20170253607A1, “LONG-ACTING HIV PROTEASE INHIBITOR” (Shionogi & Co., Ltd., priority 2014, published 2017).

The compounds below were run against HIV-1 PR (Human immunodeficiency virus type 1 group M subtype B, UniProt P04585) (assay: HIV-protease inhibitory activity assay (FRET peptide substrate)). Details: Test Example 1.
Format: biochemical
Summary of the method: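 HIV-1 PR (0.83 ng) preincubated with compounds 20 min at room temperature in 0.1 mol/L NaAc, 0.5 mol/L NaCl, 1 mmol/L EDTA, 1 mmol/L DTT, 0.05% Tween 20, pH 4.8. Cleavage of HiLyte Fluor 488/QXL 520 FRET peptide (2 μmol/L) read after 60 minutes at 485/535 nm; IC50 from four-parameter logistic fit.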
Work on `COc1ccc(S(=O)(=O)N(CC(C)C)CC(O)C(Cc2ccc(N(C)Cc3nc(N(C4CCCCC4)C4CCCCC4)sc3-c3sc4c(c3C(=O)O)CC(C)(C)CC4)cc2)NC(=O)OC2COC3(C)OCCC23)cc1` (centres unmarked) [Compound I-761] yielded an IC50 of 6.76 nM. With `COc1ccc(S(=O)(=O)N(CC(C)C)CC(O)C(Cc2ccc(N(C)CC3CCCCC3c3sc4c(c3C(=O)O)CC(C)(C)CC4)cc2)NC(=O)OC2COC3(C)OCCC23)cc1` (centres unmarked) [Compound I-375] the IC50 was 3.87 nM. With `COc1ccc(S(=O)(=O)N(CC(C)C)CC(O)C(Cc2ccc(NCc3csc(-c4sc5c(c4C(=O)O)CC(C)(C)CC5)n3)cc2)NC(=O)OC2COC3(C)OCCC23)cc1` (centres unmarked) [Compound I-295] the IC50 was 2.19 nM. For `COc1ccc(S(=O)(=O)N(CC(C)C)CC(O)C(Cc2ccc(NCc3cc(-c4sc5c(c4C(=O)O)CC(C)(C)CC5)cc4ccccc34)cc2)NC(=O)OC2COC3(C)OCCC23)cc1` (centres unmarked) [Compound I-650], the IC50 was 4.31 nM. Compound `COc1ccc(S(=O)(=O)N(CC(C)C)CC(O)C(Cc2ccc(OCc3ccccc3-c3ccc(-n4nc(C(=O)O)c5c4CCC(C)(C)C5)cc3)cc2)NC(=O)OC2COC3(C)OCCC23)cc1` (centres unmarked) [Compound I-302] has an IC50 of 2.28 nM. Compound `COc1ccc(S(=O)(=O)N(CC(C)C)CC(O)C(Cc2ccc(NCc3cccc4c(-c5sc6c(c5C(=O)O)CC(C)(C)CC6)cccc34)cc2)NC(=O)OC2COC3(C)OCCC23)cc1` (centres unmarked) [Compound I-675] has an IC50 of 13.4 nM. Compound `COc1ccc(S(=O)(=O)N(CC(C)C)CC(O)C(Cc2ccc(NCc3ccc(-c4sc5c(c4C(=O)O)CC(C)(C)CC5)c(C)c3)cc2)NC(=O)OC2COC3(C)OCCC23)cc1` (centres unmarked) [Compound I-534] has an IC50 of 4.11 nM. Work on `COc1ccc(S(=O)(=O)N(CC(C)C)CC(O)C(Cc2ccc(N3CCN(c4ccccc4-c4sc5c(c4C(=O)O)CC(C)(C)CC5)C3=O)cc2)NC(=O)OC2COC3(C)OCCC23)cc1` (centres unmarked) [Compound I-390] yielded an IC50 of 1.84 nM. Work on `COc1ccc(S(=O)(=O)N(CC(C)C)CC(O)C(Cc2ccc(N(C)Cc3ccccc3-c3ccc(NC(=O)CC4CC(C)(C)CCC4=O)cc3)cc2)NC(=O)OC2COC3(C)OCCC23)cc1` (centres unmarked) [Compound I-772] yielded an IC50 of 21 nM. For `COc1ccc(S(=O)(=O)N(CC(C)C)CC(O)C(Cc2ccc(OCc3ccccc3-n3nc4c(c3C(=O)O)CC(c3ccccc3)CC4)cc2)NC(=O)OC2COC3(C)OCCC23)cc1` (centres unmarked) [Compound I-144], the IC50 was 0.8 nM. Compound `COc1ccc(S(=O)(=O)N(CC(C)C)CC(O)C(Cc2ccc(N3CC(Oc4cc5ccccc5cc4C(=O)Nc4sc5c(c4C(=O)O)CC(C)(C)CC5)C3)cc2)NC(=O)OC2COC3(C)OCCC23)cc1` (centres unmarked) [Compound I-671] has an IC50 of 34.8 nM. In the case of `COc1ccc(S(=O)(=O)N(CC(C)C)CC(O)C(Cc2ccc(NCc3ccccc3-c3c(C(=O)O)cnc4sccc34)cc2)NC(=O)OC2COC3(C)OCCC23)cc1` (centres unmarked) [Compound I-504], the IC50 is reported as 1.93 nM. Work on `COc1ccc(S(=O)(=O)N(CC(C)C)C[C@@H](O)[C@H](Cc2ccc(COc3ccccc3-c3sc4c(c3C(=O)O)CC(C)(C)CC4)cc2)NC(=O)O[C@H]2CO[C@@]3(C)OCC[C@@H]23)cc1` [Compound I-4] yielded an IC50 of 1.69 nM. `COc1ccc(S(=O)(=O)N(CC(C)C)CC(O)C(Cc2ccc(NCc3cnn4ccc(C(=O)O)nc34)cc2)NC(=O)OC2COC3(C)OCCC23)cc1` (centres unmarked) [Compound I-320] was tested, and the IC50 was 1.95 nM. In the case of `COC(=O)NC(C(=O)NC(Cc1ccccc1)C(O)CN(Cc1ccc(-c2ccc(-c3sc4c(c3C(=O)O)CC(C)(C)CC4)cc2)cc1)NC(=O)C(NC(=O)OC)C(C)(C)C)C(C)(C)C` (centres unmarked) [Compound I-900], the IC50 is reported as 2.9 nM. `COc1ccc(S(=O)(=O)N(CC(C)C)CC(O)C(Cc2ccc(CNC(=O)c3cc(-c4ccc(F)cc4F)ccc3O)cc2)NC(=O)OC2COC3OCCC23)cc1` (centres unmarked) [Compound I-817] gave an IC50 of 1.56 nM. `COc1ccc(S(=O)(=O)N(CC(C)C)CC(O)C(Cc2ccc(NCc3ccccc3-c3ccccc3C(=O)O)cc2)NC(=O)OC2COC3(C)OCCC23)cc1` (centres unmarked) [Compound I-497] showed an IC50 of 1.96 nM. `COc1ccc(S(=O)(=O)N(CC(C)C)CC(O)C(Cc2ccc(OC3CCN(Cc4sc5c(c4C(=O)O)CC(C)(C)CC5)C3)cc2)NC(=O)OC2COC3(C)OCCC23)cc1` (centres unmarked) [Compound I-184] gave an IC50 of 1.64 nM. Compound `COc1ccc(S(=O)(=O)N(CC(C)C)C[C@@H](O)[C@H](Cc2ccc(OCc3ccccc3-c3sc4c(c3C(=O)O)CC(C)(C)CC4)cc2)NC(=O)O[C@H]2CCC[C@H]3O[C@@H]4OCC[C@@H]4[C@@H]23)cc1` [Compound I-909] has an IC50 of 3.25 nM. `CC(C)CN(CC(O)C(Cc1ccc(NCc2ccccc2C(=O)Nc2sc3c(c2C(=O)O)CC(C)(C)CC3)cc1)NC(=O)OC1COC2(C)OCCC12)S(=O)(=O)c1ccc2c(c1)OCO2` (centres unmarked) [Compound I-591] showed an IC50 of 3.16 nM. `COc1ccc(S(=O)(=O)N(CC(C)C)CC(O)C(Cc2ccc(NCc3cc4c(cc3-c3sc5c(c3C(=O)O)CC(C)(C)CC5)OCC(=O)N4C)cc2)NC(=O)OC2COC3(C)OCCC23)cc1` (centres unmarked) [Compound I-759] was tested, and the IC50 was 2.55 nM. `COc1ccc(S(=O)(=O)N(CC(C)C)CC(O)C(Cc2ccc(OCC3CN(c4ccc(C#N)cc4-c4sc5c(c4C(=O)O)CC(C)(C)CC5)C3)cc2)NC(=O)OC2COC3(C)OCCC23)cc1` (centres unmarked) [Compound I-329] showed an IC50 of 7.67 nM. For `COc1ccc(S(=O)(=O)N(CC(C)C)CC(O)C(Cc2ccc(NCc3nc4ccccc4cc3C(=O)Nc3sc4c(c3C(=O)O)CC(C)(C)CC4)cc2)NC(=O)OC2COC3OCCC23)cc1` (centres unmarked) [Compound I-885], the IC50 was 3.48 nM. `COc1ccc(S(=O)(=O)N(CC2CCC(=O)N2)CC(O)C(Cc2ccc(OCc3ccccc3-c3sc4c(c3C(=O)O)CC(C)(C)CC4)cc2)NC(=O)OC2COC3OCCC23)cc1` (centres unmarked) [Compound I-838] showed an IC50 of 0.76 nM. In the case of `CC1(C)CCc2sc(-c3cccc(CCCN(C[C@@H](O)[C@H](Cc4ccccc4)NC(=O)O[C@H]4CO[C@@]5(C)OCC[C@@H]45)S(=O)(=O)c4ccc5ncsc5c4)c3)c(C(=O)O)c2C1` [Compound I-36], the IC50 is reported as 1.88 nM. Compound `COc1ccc(S(=O)(=O)N(CC(C)C)CC(O)C(Cc2ccc(OCc3ccccc3-c3sc4c(c3C(=O)O)CC(C)(C)CC4)cc2)NC(=O)OC2COC3(C)OCC(O)C23)cc1` (centres unmarked) [Compound I-56] has an IC50 of 1.21 nM. With `COc1ccc(S(=O)(=O)N(CC(C)C)CC(O)C(Cc2ccc(NCC3CC(C)(C)CCC3c3sc4c(c3C(=O)O)CC(C)(C)CC4)cc2)NC(=O)OC2COC3(C)OCCC23)cc1` (centres unmarked) [Compound I-764] the IC50 was 2.81 nM. `CC1(C)CCc2sc(-c3ccc(C(F)(F)F)cc3CNc3ccc(CC(NC(=O)OC4COC5OCCC45)C(O)CN(CC4CCCC4)S(=O)(=O)c4ccc5ncsc5c4)cc3)c(C(=O)O)c2C1` (centres unmarked) [Compound I-873] gave an IC50 of 8.43 nM. For `COc1ccc(S(=O)(=O)N(CC(C)C)CC(O)C(Cc2ccc(NCc3ccccc3OCC(=O)O)cc2)NC(=O)OC2COC3(C)OCCC23)cc1` (centres unmarked) [Compound I-315], the IC50 was 1.98 nM. For `COc1ccc(S(=O)(=O)N(CC(C)C)CC(O)C(Cc2ccc(NCC3CCCCN3C(=O)c3sc4c(c3C(=O)O)CC(C)(C)CC4)cc2)NC(=O)OC2COC3(C)OCCC23)cc1` (centres unmarked) [Compound I-605], the IC50 was 1.96 nM. Compound `COc1ccc(S(=O)(=O)N(CC(C)C)CC(O)C(Cc2ccc(N(C)Cc3nc(N4CCCCC4)sc3-c3sc4c(c3C(=O)O)CC(C)(C)CC4)cc2)NC(=O)OC2COC3(C)OCCC23)cc1` (centres unmarked) [Compound I-756] has an IC50 of 3.46 nM. `CC(C)CN(CC(O)C(Cc1ccc(OCc2ccccc2-c2ccc3c(c2)C(=O)C(c2ccc(F)cc2)C3=O)cc1)NC(=O)OC1COC2(C)OCCC12)S(=O)(=O)c1ccc2c(c1)OCO2` (centres unmarked) [Compound I-174] gave an IC50 of 2.08 nM. Compound `COc1ccc(S(=O)(=O)N(CC(C)C)CC(O)C(Cc2ccc(N3CCc4ccc(-c5sc6c(c5C(=O)O)CC(C)(C)CC6)cc4C3)cc2)NC(=O)OC2COC3(C)OCCC23)cc1` (centres unmarked) [Compound I-215] has an IC50 of 2.01 nM. Work on `COc1ccc(S(=O)(=O)N(CC(C)C)CC(O)C(Cc2ccc(NCc3ccccc3-c3c(C(=O)O)[nH]c4cc(OC)ccc34)cc2)NC(=O)OC2COC3(C)OCCC23)cc1` (centres unmarked) [Compound I-634] yielded an IC50 of 2.26 nM. Work on `COc1ccc(S(=O)(=O)N(CC(C)C)CC(O)C(Cc2ccc(OC3CCN(C(=O)c4sc5c(c4C(=O)O)CC(C)(C)CC5)C3)cc2)NC(=O)OC2COC3(C)OCCC23)cc1` (centres unmarked) [Compound I-245] yielded an IC50 of 2.01 nM. Compound `COc1ccc(S(=O)(=O)N(CC(C)C)CC(O)C(Cc2ccc(NCc3ccccc3C(=O)Nc3sc4c(c3C(=O)O)CC(C)(C)CC4)cc2)NC(=O)OC2COC3(C)OCCC23)cc1` (centres unmarked) [Compound I-397] has an IC50 of 2.64 nM. `COc1ccc(S(=O)(=O)N(CC(C)C)CC(O)C(Cc2ccc(NCc3cc(OC)ccc3C(=O)Nc3sc4c(c3C(=O)O)CC(C)(C)CC4)cc2)NC(=O)OC2COC3(C)OCCC23)cc1` (centres unmarked) [Compound I-732] showed an IC50 of 3.26 nM. Compound `COc1ccc(S(=O)(=O)N(CC(C)C)CC(O)C(Cc2ccc(N(C)C(=O)Nc3sc4c(c3C(=O)O)CC(C)(C)CC4)cc2)NC(=O)OC2COC3(C)OCCC23)cc1` (centres unmarked) [Compound I-220] has an IC50 of 2.08 nM. Work on `COc1ccc(S(=O)(=O)N(CC(C)C)CC(O)C(Cc2ccc(N(CCC(C)(C)C)Cc3ccccc3-c3sc4c(c3C(=O)O)CC(C)(C)CC4)cc2)NC(=O)OC2COC3(C)OCCC23)cc1` (centres unmarked) [Compound I-459] yielded an IC50 of 18.4 nM. Work on `COc1ccc(S(=O)(=O)N(CC(C)C)CC(O)C(Cc2ccc(OCc3ccccc3-c3sc4c(c3C(=O)O)CC(F)(F)CC4)cc2)NC(=O)OC2COC3(C)OCCC23)cc1` (centres unmarked) [Compound I-54] yielded an IC50 of 1.24 nM. With `COc1ccc(S(=O)(=O)N(CC(C)C)CC(O)C(Cc2ccc(NCc3cc(Oc4cccc5cccnc45)ccc3-c3sc4c(c3C(=O)O)CC(C)(C)CC4)cc2)NC(=O)OC2COC3(C)OCCC23)cc1` (centres unmarked) [Compound I-684] the IC50 was 2.83 nM. `COc1ccc(S(=O)(=O)N(CC(C)C)CC(O)C(Cc2ccc(Oc3ccc(C(=O)O)c(-c4ccc(F)cc4F)c3)cc2)NC(=O)OC2COC3(C)OCCC23)cc1` (centres unmarked) [Compound I-155] gave an IC50 of 1.37 nM. `COC(=O)NC(C(=O)NC(Cc1ccccc1)C(O)CN(Cc1ccc(-c2sc3c(c2C(=O)O)CC(C)(C)CC3)cc1)NC(=O)C(NC(=O)OC)C(C)(C)C)C(C)(C)C` (centres unmarked) [Compound I-901] was tested, and the IC50 was 2.34 nM. For `COc1ccc(S(=O)(=O)N(CC(C)C)CC(O)C(Cc2ccc(NCc3ccccc3-c3ccc4c(c3C(=O)O)CC(C)(C)CC4)cc2)NC(=O)OC2COC3(C)OCCC23)cc1` (centres unmarked) [Compound I-392], the IC50 was 2.4 nM.
